From ChEMBL document CHEMBL1201862, “PubChem BioAssay data set” (2004)
Calls of active or inactive are those of the source.

Legend:
[1] = target: FAD-linked sulfhydryl oxidase ALR (Homo sapiens, UniProt P55789); assay: ALR-catalysed DTT oxidation blockers – biochemical, H2O2 detection, luminescence, cherry-pick, dose response (AID 493248)
[2] = test system: Escherichia coli; assay: microbe, parasite or virus in culture
[3] = target: Voltage-gated inwardly rectifying potassium channel KCNH2 (Homo sapiens, UniProt Q12809); settings: Potency;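 also: confirmatory quantitative high-throughput screen measuring inhibition of hERG channel activity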
[4] = target: T1, Streptokinase A (Streptococcus pyogenes serotype M1, UniProt P10520); assay: viability-normalized secreted streptokinase activity reduction – plasminogen activation absorbance, OD405, dose response (AID 1914); format: functional, Streptococcus pyogenes M1 GAS;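 also: secreted streptokinase activity via plasminogen activation per viability signal from cell pellet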
T1 sequence (P10520 whole entry): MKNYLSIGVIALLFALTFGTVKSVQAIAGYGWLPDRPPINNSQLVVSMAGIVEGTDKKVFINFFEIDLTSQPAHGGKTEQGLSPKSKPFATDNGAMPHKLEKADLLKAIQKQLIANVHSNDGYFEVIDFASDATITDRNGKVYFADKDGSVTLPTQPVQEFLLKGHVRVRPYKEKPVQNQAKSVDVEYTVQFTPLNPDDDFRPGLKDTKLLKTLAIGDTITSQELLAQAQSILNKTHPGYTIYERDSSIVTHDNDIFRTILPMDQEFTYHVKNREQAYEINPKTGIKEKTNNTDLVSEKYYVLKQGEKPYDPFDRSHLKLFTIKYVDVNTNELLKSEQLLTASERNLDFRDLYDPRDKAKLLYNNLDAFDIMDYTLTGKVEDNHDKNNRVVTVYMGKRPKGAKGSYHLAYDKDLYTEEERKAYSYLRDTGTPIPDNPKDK

[5] = test system: Streptococcus sp. 'group A'; assay: Streptococcus pyogenes SK(-)GAS viability under kanamycin – luminescence, BacTiterGlo, confirmation, counter-screen for streptokinase expression inhibitor project, dose response (AID 1900); format: functional, organism-based
[6] = test system: Streptococcus; assay: GAS UMAA2166 growth inhibition – luminescence, BacTiterGlo, counter-screen for streptokinase expression inhibitor project, dose response (AID 1915); format: functional, organism-based;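 also: potency for reduction of bacterial viability or growth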
[7] = target: T2, Apoptotic protease-activating factor 1 (Homo sapiens, UniProt O14727); assay: SAR analysis of small molecule inhibitors of Apaf-1 in a Fluorescent assay.; format: functional; settings: read-out: IC50_Mean
T2 sequence (O14727 whole entry): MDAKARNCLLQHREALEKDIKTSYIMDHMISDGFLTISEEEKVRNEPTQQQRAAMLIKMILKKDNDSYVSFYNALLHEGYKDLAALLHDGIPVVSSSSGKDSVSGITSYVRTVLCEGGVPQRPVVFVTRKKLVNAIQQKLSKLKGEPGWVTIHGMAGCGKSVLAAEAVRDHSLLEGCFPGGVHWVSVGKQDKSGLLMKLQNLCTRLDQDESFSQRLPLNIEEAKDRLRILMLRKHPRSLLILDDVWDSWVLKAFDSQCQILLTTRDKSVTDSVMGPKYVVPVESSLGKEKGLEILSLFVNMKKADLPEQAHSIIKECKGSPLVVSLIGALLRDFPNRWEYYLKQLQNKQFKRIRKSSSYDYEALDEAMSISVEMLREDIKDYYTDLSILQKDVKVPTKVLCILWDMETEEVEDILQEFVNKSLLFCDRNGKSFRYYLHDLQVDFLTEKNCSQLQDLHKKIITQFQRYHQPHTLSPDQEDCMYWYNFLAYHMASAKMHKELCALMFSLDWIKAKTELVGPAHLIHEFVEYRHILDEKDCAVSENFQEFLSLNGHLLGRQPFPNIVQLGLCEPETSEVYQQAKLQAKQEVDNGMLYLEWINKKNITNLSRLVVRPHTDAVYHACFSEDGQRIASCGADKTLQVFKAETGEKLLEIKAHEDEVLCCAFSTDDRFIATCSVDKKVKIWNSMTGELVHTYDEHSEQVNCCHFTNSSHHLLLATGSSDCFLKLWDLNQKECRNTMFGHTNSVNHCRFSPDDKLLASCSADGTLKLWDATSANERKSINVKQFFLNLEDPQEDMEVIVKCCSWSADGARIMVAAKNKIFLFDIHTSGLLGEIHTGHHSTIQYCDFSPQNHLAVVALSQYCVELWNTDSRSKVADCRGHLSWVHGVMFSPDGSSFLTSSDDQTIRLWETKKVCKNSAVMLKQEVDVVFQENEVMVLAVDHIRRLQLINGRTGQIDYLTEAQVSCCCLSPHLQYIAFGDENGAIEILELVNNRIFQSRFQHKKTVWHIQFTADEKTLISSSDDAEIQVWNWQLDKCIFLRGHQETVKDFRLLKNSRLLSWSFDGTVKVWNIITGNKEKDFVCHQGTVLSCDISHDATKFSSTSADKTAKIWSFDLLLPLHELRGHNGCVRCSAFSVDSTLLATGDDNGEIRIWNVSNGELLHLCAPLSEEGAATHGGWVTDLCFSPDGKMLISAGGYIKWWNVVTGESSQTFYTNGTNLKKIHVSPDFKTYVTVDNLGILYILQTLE

[8] = target: T3, Endoribonuclease toxin MazF (Escherichia coli K-12, UniProt P0AE70); assay: substrate-only fluorescence increase artefacts – biochemical, single-stranded RNase substrate, counter-screen for MazEF activator project, dose response (AID 588502); format: functional
T3 sequence (P0AE70 whole entry): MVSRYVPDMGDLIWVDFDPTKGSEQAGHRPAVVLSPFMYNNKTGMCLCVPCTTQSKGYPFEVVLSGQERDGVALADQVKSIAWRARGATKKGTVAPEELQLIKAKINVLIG

[9] = target: T3, Endoribonuclease toxin MazF; assay: activation of MazEF endoribonuclease cleavage – biochemical, fluorescence, single-stranded RNA substrate, uHTS hits, dose response (AID 588481); format: functional
[10] = Luminescence Cell-Based Dose Retest to Confirm Inhibitors of Cancer Stem Cells. [Related pubchem assays (depositor defined):AID2717, AID2721]; format: functional; settings: Homo sapiens
[11] = viability loss of HMLE_sh_eGFP cells – cell-based, luminescence, counter-screen for HMLE_sh_ECad selective toxicity project, dose response (AID 463074); format: functional, Homo sapiens;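 also: HMLE human mammary epithelial cells expressing control shRNA against eGFP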

Chain of Voltage-gated inwardly rectifying potassium channel KCNH2 (Q12809 whole entry): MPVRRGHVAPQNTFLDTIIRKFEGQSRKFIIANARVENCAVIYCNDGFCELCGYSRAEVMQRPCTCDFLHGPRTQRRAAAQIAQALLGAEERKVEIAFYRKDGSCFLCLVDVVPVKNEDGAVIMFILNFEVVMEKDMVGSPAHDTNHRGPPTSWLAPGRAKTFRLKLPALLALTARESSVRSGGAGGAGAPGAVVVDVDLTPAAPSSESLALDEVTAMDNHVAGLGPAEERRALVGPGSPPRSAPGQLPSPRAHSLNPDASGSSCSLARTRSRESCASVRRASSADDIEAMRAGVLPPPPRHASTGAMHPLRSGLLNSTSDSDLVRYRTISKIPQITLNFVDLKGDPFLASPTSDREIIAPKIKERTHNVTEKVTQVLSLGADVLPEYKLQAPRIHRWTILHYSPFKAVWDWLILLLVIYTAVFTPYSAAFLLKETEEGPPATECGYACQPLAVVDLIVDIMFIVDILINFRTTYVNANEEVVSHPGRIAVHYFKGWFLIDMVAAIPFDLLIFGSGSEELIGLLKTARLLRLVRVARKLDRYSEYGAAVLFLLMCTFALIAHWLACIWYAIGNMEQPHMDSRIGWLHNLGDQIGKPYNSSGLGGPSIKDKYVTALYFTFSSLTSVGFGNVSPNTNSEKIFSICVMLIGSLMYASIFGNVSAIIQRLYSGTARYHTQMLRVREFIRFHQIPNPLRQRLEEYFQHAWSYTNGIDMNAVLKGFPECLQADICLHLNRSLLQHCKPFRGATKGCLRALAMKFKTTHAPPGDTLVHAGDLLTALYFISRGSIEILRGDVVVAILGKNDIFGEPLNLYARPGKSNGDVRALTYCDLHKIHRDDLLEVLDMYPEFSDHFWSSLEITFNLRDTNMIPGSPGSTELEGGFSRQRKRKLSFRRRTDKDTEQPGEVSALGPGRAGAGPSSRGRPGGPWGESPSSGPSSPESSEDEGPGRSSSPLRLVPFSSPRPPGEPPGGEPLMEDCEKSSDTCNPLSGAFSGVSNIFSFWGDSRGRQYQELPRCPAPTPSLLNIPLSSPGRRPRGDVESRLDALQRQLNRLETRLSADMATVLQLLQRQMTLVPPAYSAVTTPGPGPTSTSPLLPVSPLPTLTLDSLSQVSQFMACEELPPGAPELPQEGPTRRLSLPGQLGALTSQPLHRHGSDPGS
Chain of FAD-linked sulfhydryl oxidase ALR (P55789 whole entry): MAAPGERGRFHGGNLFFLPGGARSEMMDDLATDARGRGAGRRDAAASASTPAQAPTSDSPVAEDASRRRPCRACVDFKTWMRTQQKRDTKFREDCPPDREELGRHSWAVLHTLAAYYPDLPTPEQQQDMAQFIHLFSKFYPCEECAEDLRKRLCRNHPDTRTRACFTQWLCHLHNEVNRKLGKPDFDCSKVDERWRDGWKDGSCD

For Cc1ccc(SCc2noc(C(=O)NC(C)C)c2C(=O)O)cc1C, the AC50 [1] was 4.26 µM (active) and the AC50 [2] was 65.6 µM (active).

With CC(C=O)Cc1ccc(C(C)(C)C)cc1 (centres undefined) the AC50 [3] was 50.1 µM (inconclusive).

In the case of CC(C)(C)c1ccc(OCC(O)CS(=O)(=O)c2ccccn2)cc1 (centres undefined), the EC50 [4] is reported as > 150 µM (not active), the EC50 [5] is reported as > 150 µM (not active) and the EC50 [6] is reported as > 150 µM (not active). The AC50 [2] was 23.7 µM (active).

With O=C1c2cc(Cl)ccc2-n2c1nc1ccccc1c2=O the IC50 [7] was 60.3 µM (active).

In the case of Cc1cccc(N=Nc2c(O)[nH]c3ccc(F)cc23)c1, the EC50 [8] is reported as > 99 µM (inactive) and the EC50 [9] is reported as 38.7 µM (inactive).

In the case of Cc1ccc(CSc2ccc(-c3ccc4c(c3)OCO4)nn2)cc1, the AC50 [10] is reported as 1.46 µM (active) and the AC50 [11] is reported as 43.6 µM (active).

For O=C(Nc1ccc2nc(-c3ccc(Br)o3)[nH]c2c1)c1cccs1, the IC50 [7] was > 100 µM (inactive).

With NC(Cc1ccc(N(CCCl)CCCl)cc1)C(=O)O (centres undefined) [SARCOLYSIN] the AC50 [3] was 35.5 µM (inconclusive).
